Results published in PubChem BioAssay (NCI).
“And” between values parts separate entries of the source, which are not always exact repeats. Equal entries are not always repeated.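 Tested at 5 concentrations; 48 h exposure; 96-well plates; endpoints linearly interpolated, else capped at highest concentration. Here, GI50 denotes the concentration required for 50% inhibition of growth. TGI is the concentration that stops growth completely.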

Tests used:
Test in all cases: NCI anticancer screen, dose series, 48 h
A498 renal = system: A498 renal
KM12 colon = system: KM12 colon
MALME-3M melanoma = system: MALME-3M melanoma
SNB-75 CNS = system: SNB-75 CNS
SR leukemia = system: SR leukemia
TK-10 renal = system: TK-10 renal
U251 CNS = system: U251 CNS
BT-549 breast = system: BT-549 breast
HCT-15 colon = system: HCT-15 colon
T-47D breast = system: T-47D breast

Structure (SMILES) | TGI (A498 renal) | TGI (KM12 colon) [µM] | TGI (MALME-3M melanoma) | TGI (SNB-75 CNS) | TGI (SR leukemia) [µM] | TGI (TK-10 renal) | TGI (U251 CNS) | GI50 (A498 renal) | GI50 (BT-549 breast) | TGI (BT-549 breast) | GI50 (HCT-15 colon) | TGI (HCT-15 colon) | GI50 (KM12 colon) [µM] | GI50 (MALME-3M melanoma) | GI50 (SNB-75 CNS) | GI50 (T-47D breast) [µM] | TGI (T-47D breast) [µM] | GI50 (TK-10 renal) | GI50 (U251 CNS) | GI50 (SR leukemia)
Cn1cnc([N+](=O)[O-])c1Sc1nccn1-c1cccc2ccccc12 | > 100 µM | > 100 | 42.2 µM | 87.5 µM | 50.5 | > 100 µM | > 100 µM | – | – | – | – | – | – | – | – | – | – | – | – | –
NCCCCCCCn1c2c(c3ccccc3c1=O)C(=O)c1ccccc1-2 | 11.8 µM | 3.82 | 4.01 µM | 4.55 µM | – | 3.29 µM | 7.07 µM | 3.26 µM | 1.7 µM | 3.14 µM | 1.53 µM | 5.2 µM | 1.68 | 1.98 µM | 2.17 µM | 2.01 | 4.27 | 1.67 µM | 2.48 µM | –
Cc1cccc(C(C)(C)C)c1NC(=O)CC1C(=O)Nc2ccccc2S1(=O)=O (stereo not given) | 28.4 µM | – | 25.4 µM | 30.4 µM | 7.13 | 42 µM | 20.2 µM | – | – | – | – | 16.3 µM | – | – | – | – | – | – | – | –
CC(=O)C1C(c2ccc(N(C)C)cc2)c2cc3c(cc2OC1(C)O)OCO3 (stereo not given) | – | – | > 100 µM | 68.2 µM | – | > 100 µM | > 100 µM | – | – | – | – | > 100 µM | – | – | – | – | – | – | – | –
C/C(=N\NS(=O)(=O)c1ccc(C)cc1)P(=O)(O)O | > 100 µM | > 100 | > 100 µM | > 100 µM | – | > 100 µM | > 100 µM | – | – | > 100 µM | – | > 100 µM | – | – | – | – | > 100 | – | – | –
COc1c2ccoc2c(OC)c2oc(=O)ccc12 | > 100 µM | > 100 | – | 63.6 µM | > 100 | > 100 µM | > 100 µM | – | – | > 100 µM | – | > 100 µM | – | – | – | – | > 100 | – | – | –
COC(=O)C(C(=O)OC)C1CCCC(=O)C1 (stereo not given) | > 100 µM | > 100 | > 100 µM | > 100 µM | > 100 | > 100 µM | > 100 µM | – | – | – | – | > 100 µM | – | – | – | – | – | – | – | –
Cc1ccc(NC(=O)CC2Sc3ccccc3NC2=O)c(C)c1 (stereo not given) | 30.1 µM | 20.1 | 47.7 µM | 19.2 µM | – | 50.9 µM | 33.1 µM | – | – | – | – | – | – | – | – | – | – | – | – | –
O=C(c1ccccc1)C1OC12C(=O)Nc1c(Cl)cc(Cl)cc12 (stereo not given) | > 100 µM | > 100 | > 100 µM | 29.5 µM | 31.1 | > 100 µM | > 100 µM | – | – | – | – | > 70 µM | – | – | – | – | – | – | – | –
Cc1ccc(S(=O)(=O)NC2(C=O)CCCC3CCCCC32)cc1 (stereo not given) | > 100 µM | > 100 | > 100 µM | > 100 µM | > 100 | > 100 µM | > 100 µM | – | – | – | – | > 100 µM | – | – | – | – | – | – | – | –
O=C(Nc1ccc(Cl)c(Cl)c1)Nc1c(Oc2ccc(Cl)c(Cl)c2)ccc(Cl)c1S(=O)(=O)O | 6.26 µM | > 100 | – | 4.53 µM | > 100 | – | > 100 µM | 1.53 µM | 1.71 µM | > 100 µM | – | – | 0.927 | – | 1.51 µM | – | – | – | 3.16 µM | 0.504 µM
COc1cc(N(C)C)c(OC)cc1/C=C\c1ccnc2ccccc12 | 9.92 µM | > 10 | > 10 µM | 9.62 µM | – | > 10 µM | > 10 µM | – | – | > 10 µM | – | > 10 µM | – | – | – | – | – | – | – | –
CCOC(=O)c1cc2c(cc1Cl)SC(N(c1ccc(OC)cc1)S(=O)(=O)c1ccc(Cl)cc1)=NS2(=O)=O | > 100 µM | > 100 | > 100 µM | 90.4 µM | 98.6 | > 100 µM | 88.4 µM | 80.8 µM | – | – | 32.3 µM | > 100 µM | 46.7 | 28.1 µM | 23.3 µM | 12.1 | 36.1 | 38.4 µM | 29.1 µM | 24.8 µM
C[n+]1c2cc(N)ccc2cc2ccc(N)cc21 | 0.795 µM and 0.599 µM and 0.492 µM | – | 2.86 µM [middle of 4 runs] | 4.05 µM [middle of 4 runs] | – | 9.33 µM [middle of 4 runs] | 4.22 µM [middle of 4 runs] | 0.162 µM and 0.152 µM and 0.0719 µM | 1.61 µM [middle of 4 runs] | 4.05 µM [middle of 4 runs] | 2.41 µM [middle of 4 runs] | 15.2 µM [middle of 4 runs] | – | 763 nM [middle of 4 runs] | 1.55 µM [middle of 4 runs] | – | – | 1.43 µM [middle of 4 runs] | 733 nM [middle of 4 runs] | 687 nM [middle of 4 runs]
CN1C(=O)C2C3C=C4c5ccccc5N(c5ccccc5)C4(C2C1=O)[C@H]1C(=O)N(C)C(=O)[C@@H]31 (stereo not given in full) | > 100 µM | > 100 | > 100 µM | > 100 µM | > 100 | > 100 µM | > 100 µM | – | – | – | – | – | – | – | – | – | – | – | – | –
C/C1=C/C(=O)O[C@@H]2C[C@@H](CC[C@H](C)/C=C\C=C\CC1)O[C@@](O)([C@@H]1CSC(=O)N1)C2 | 0.358 µM | > 10 | > 10 µM | 0.332 µM | > 10 | 1.01 µM | > 10 µM | – | – | > 2.59 µM | – | > 10 µM | – | – | – | – | – | – | – | –
CC(Nc1ccc(S(=O)(=O)N=C(N)N)cc1)c1c2ccccc2nc2ccccc12 (stereo not given) | – | > 100 | 65.6 µM | 79.7 µM | 65.7 | > 100 µM | > 100 µM | – | – | – | – | > 100 µM | – | – | – | – | – | – | – | –
O=C(c1ccccc1)C1OC1c1ccc([N+](=O)[O-])cc1 (stereo not given) | 53.1 µM | 17.7 | > 100 µM | 72.7 µM | – | 50.8 µM | > 100 µM | 18.8 µM | 5.47 µM | 44.3 µM | 4.28 µM | > 100 µM | 3.83 | 6.22 µM | 2.92 µM | 3.9 | 71.1 | 6.1 µM | 9.86 µM | –
CC12CCC3(OCCO3)C(OC(=O)c3ccccc3)=C1CCC21OCCO1 (stereo not given) | > 100 µM | > 100 | > 100 µM | > 100 µM | > 100 | > 100 µM | > 100 µM | – | – | – | – | > 100 µM | – | – | – | – | – | – | – | –
O=C(COc1cc(O)c2c(=O)cc(-c3ccccc3)oc2c1)Nc1ccccc1C(F)(F)F | 17.8 µM | > 100 | > 100 µM | 4.41 µM | > 100 | 3.71 µM | 4.45 µM | 4.04 µM | 5.19 µM | 38.9 µM | 3.28 µM | 21.1 µM | 8.17 | 3.17 µM | 1.65 µM | – | – | 1.88 µM | 2.01 µM | 4.44 µM
